Experimental data: publication PMC11729425 (ACS Pharmacology & Translational Science, 2024)

Tests used:
Aged C57BL/6J mice = test: CK level after 90 min downhill running; format: in vivo, C57BL/6JRj mice; conditions: 1 mg/kg in the food, week 15, trend for improvement
Procedure: Figure 2 Chronic oral administration of ALT-007 enhances physical fitness in aged mice. (A) Schematic representation of the study time-line. Compounds were mixed in the food, ALT-007 at 1 mg/kg and DMSO at equivalent volume. At week 0: young mice were 2 months old, and the old mice were 18 months old. (B) Body weight curve over the course of the study (20 weeks). (C) Food intake curve throughout the study. (D–G) Organ mass at sacrifice (week 20), normalized to body weight. (H) Oral glucose tolerance test (oGTT) performed at week 17. (I) Best performance during hanging time normalized to BW at week 7. (J) Best performance during grip strength on the 4 limbs normalized to BW at week 8. (K) Rotarod’s best latency time at week 9. (L) VO2Max performed at week 11. (M) Uphill maximum running time performed at week 13. N = 9 per group. (N) Difference of CK level after—before 90 min downhill running performed at week 15. N = 6 in young, N = 8 in DMSO and N = 7 in ALT-007-treated groups. (O–Q) Measurement of kCAL/h at night (O) and at day (P) and movement recording in x, y, z (Q) during 24 h in CLAMS at week 19. N = 12 per group unless specified otherwise. Quantitative data are expressed as median with IQR. *P < 0.05, **P < 0.01, ***P < 0.001, ****P < 0.0001. ANOVA test was used for multiple comparison, and the Mann–Whitney U test when comparing 2 groups. All tests were 2 sided.

[1] = tested on: ceramide levels in the gastrocnemius muscle; test: Ceramide levels in gastrocnemius muscle after 10 days of treatment; format: in vivo, mice; conditions: 4 mg/kg/d in the food
Procedure: (A) Schematic representation of the de novo sphingolipid synthesis pathway. (B) Chemical structures of myriocin (MYR) and ALT-007. (C) Heatmap analysis comparing the effects of treatments with the indicated concentrations of MYR and ALT-007 on lipid species in C2C12 cells. N = 3 per group. Data are shown as log2 fold change. (D) Body weight curves of mice treated with ALT-007 or vehicle (4 mg/kg/d for 10 days, in the food). (E) Mean food consumption measurement throughout the treatment. (F) Plasma levels of aspartate transaminase (AST), (G) alanine transaminase (ALT) and (H) creatine kinase (CK) after 10 days of treatment with ALT-007 at 4 mg/kg/day. (I) Ceramide levels measured in the gastrocnemius muscle after 10 days of treatment. N = 8 per group. Quantitative data are expressed as median with min to max values. *P < 0.05, **P < 0.01, ***P < 0.001. […]
ESI source conditions were used as follows: dry gas temperature, 230 °C; nebulizer, 35 psi and flow rate of 14 L min^–1; sheath gas temperature, 400 °C and flow rate of 12 L min^–1; nozzle voltage, 500 V; and capillary voltage, 4000 V. Dynamic multiple reaction monitoring was used as the acquisition mode with a total cycle time of 500 ms. […] Raw LC–MS/MS data were processed applying Agilent Quantitative Analysis software (version B.07.00, MassHunter Agilent Technologies). […]

SMILES: COc1cc(C(=O)N2CC[C@H](NC(=O)c3ccccc3OC(F)(F)F)c3c2cnn3C(C)C)cnc1OC [ALT-007]
- creatine kinase in the blood after a downhill running test (Aged C57BL/6J mice): nor did it reduce
- ceramide levels in the gastrocnemius muscle [1]: effectively decreased ceramide levels with a stronger effect on very long-chain (VLC) species
